Reference: US20120220488A1, “HEART AGING BIOMARKERS AND METHODS OF USE” (priority 2009, published 2012)

Legend:
Assay type in all cases: in vivo
[1] = tested on: Wnt pathway genes; assay: Wnt pathway gene expression in aged heart, Study 2; conditions: Study 2, mouse aged heart; all but three of the genes of Table 2/3
Description: Two public rodent cardiac aging gene expression data sets were selected from the NCBI's Gene Expression Omnibus (GEO): (1) The University of Washington's rat study (UW) (Linford J L et al. (2007) Transcriptional Response to Aging and Calorie Restriction in Heart and Adipose Tissue. Aging Cell 6: 673-688)) (Study 1); and (2) LifeGen's mouse study (Barger J L et al. (2008) A Low Dose of Dietary Resveratrol partially Mimics Calorie Restriction and Retards Aging Parameters in Mice. PLoS ONE 3(6): 1-10) (Study 2). Materials and methods for the two studies are shown in the references. A third data set came from an unpublished mouse cardiac aging study. In that study, mice were divided into two groups (n=7) and were fed with control diet according to the proceedings in the Barger study. […]
To determine the impact of gene expression changes in the systems level, pathway analysis was conducted on the data sets from Study 2 and Study 3 using GenMAPP and MAPPFinder software (Salomonis, K Hanspers, A C Zambon, K Vranizan, S C Lawlor, K D Dahlquist, S W Doniger, J Stuart, B R Conklin, and A R Pico. GenMAPP 2: new features and resources for pathway analysis. BMC Bioinformatics, June 2007; 8: 217). […] The inventors determined that the Wnt signaling pathway was among those with most significant associations (adjusted p value of 0.011 in both the Study 2 and Study 3 data sets). […]

[2] = tested on: Pias4; assay: Microarray gene expression in heart tissue, Study 2; conditions: Study 2, mouse heart tissue, old (30) + Resveratrol vs old; probe 1455394_at
Description: (§1) Two public rodent cardiac aging gene expression data sets were selected from the NCBI's Gene Expression Omnibus (GEO): (1) The University of Washington's rat study (UW) (Linford J L et al. (2007) Transcriptional Response to Aging and Calorie Restriction in Heart and Adipose Tissue. Aging Cell 6: 673-688)) (Study 1); and (2) LifeGen's mouse study (Barger J L et al. (2008) A Low Dose of Dietary Resveratrol partially Mimics Calorie Restriction and Retards Aging Parameters in Mice. PLoS ONE 3(6): 1-10) (Study 2). Materials and methods for the two studies are shown in the references. A third data set came from an unpublished mouse cardiac aging study. In that study, mice were divided into two groups (n=7) and were fed with control diet according to the proceedings in the Barger study. Mice were sacrificed at the ages of 5 months (young group) and 25 months (old group). Heart tissues were collected and subject to microarray gene expression assays (Study 3). In Study 2 and Study 3, Affymetrix mouse genome 430 2.0 gene chips were used. In Study 1, Affymetrix rat genome 230 2.0 gene chips were used. A description of the three studies is outlined in Table 1.
(§2) Data were first inspected for quality and examined for possible outliers. Three samples, one from each Study, were identified as outliers and were removed from further analysis. Differential genes were identified between young and old groups in each Study using Significance Analysis of Microarrays (SAM) algorithm (Tusher, Tibshirani and Chu (2001) Significance analysis of microarrays applied to the ionizing radiation response. PNAS 2001 98: 5116-5121). The selection criteria include magnitude of expression change (fold>=1.2) and false discovery rate (FDR<0.5%).
(§3) Genes in the Wnt pathway were further examined for their expressional changes. […] Those genes/proteins are listed in Table 2, along with respective representative GenBank Accession Numbers, and the Study 2 results are shown in Table 3. The expression of these genes was also examined in the calorie restricted (CR) group and resveratrol (“Resv”) group.

[3] = tested on: Dlgh1; assay: as above; conditions: Study 2, mouse heart tissue, old (30) + Resveratrol vs old; probe 1450768_at
Description: as §1, §2, §3

[4] = tested on: Senp2; assay: as above; conditions: Study 2, mouse heart tissue, old (30) + Resveratrol vs old; probe 1425465_a_at
Description: as §1, §2, §3

[5] = tested on: Rac1; assay: as above; conditions: Study 2, mouse heart tissue, old (30) + Resveratrol vs old; probe 1423734_at
Description: as §1, §2, §3

[6] = tested on: Ccnd1; assay: as above; conditions: Study 2, mouse heart tissue, old (30) + Resveratrol vs old; probe 1448698_at
Description: as §1, §2, §3

[7] = tested on: Mark2; assay: as above; conditions: Study 2, mouse heart tissue, old (30) + Resveratrol vs old; probe 1435889_at
Description: as §1, §2, §3

[8] = tested on: Akt1; assay: as above; conditions: Study 2, mouse heart tissue, old (30) + Resveratrol vs old; probe 1425711_a_at
Description: as §1, §2, §3

[9] = tested on: Camk2d; assay: as above; conditions: Study 2, mouse heart tissue, old (30) + Resveratrol vs old; probe 1427763_a_at
Description: as §1, §2, §3

[10] = tested on: Mapk1; assay: as above; conditions: Study 2, mouse heart tissue, old (30) + Resveratrol vs old; probe 1426585_s_at
Description: as §1, §2, §3

[11] = tested on: Smad3; assay: as above; conditions: Study 2, mouse heart tissue, old (30) + Resveratrol vs old; probe 1450471_at
Description: as §1, §2, §3

[12] = tested on: Dab2; assay: as above; conditions: Study 2, mouse heart tissue, old (30) + Resveratrol vs old; probe 1430604_a_at
Description: as §1, §2, §3

[13] = tested on: Magi3; assay: as above; conditions: Study 2, mouse heart tissue, old (30) + Resveratrol vs old; probe 1421035_a_at
Description: as §1, §2, §3

[14] = tested on: Ctnnb1 (beta-catenin); assay: as above; conditions: Study 2, mouse heart tissue, old (30) + Resveratrol vs old; for Fold Change Resv vs. Old, Ctnnb1(1): Ctnnb1 probe 1
Description: as §1, §2
Genes in the Wnt pathway were further examined for their expressional changes. […] Those genes/proteins are listed in Table 2, along with respective representative GenBank Accession Numbers, and the Study 2 results are shown in Table 3. The expression of these genes was also examined in the calorie restricted (CR) group and resveratrol (“Resv”) group. […]

Oc1ccc(C=Cc2cc(O)cc(O)c2)cc1 [Resv, resveratrol]
Expression of Wnt pathway genes decreased in aged heart, after treatment [1]: elevated to their young levels
Fold Change Resv vs. Old, Pias4 [2]: −1.495 fold
Fold Change Resv vs. Old, Dlgh1 [3]: 1.150 fold
Fold Change Resv vs. Old, Senp2 [4]: 1.261 fold
Fold Change Resv vs. Old, Rac1 [5]: 1.509 fold
Fold Change Resv vs. Old, Ccnd1 [6]: −1.158 fold
Fold Change Resv vs. Old, Mark2 [7]: −2.113 fold
Fold Change Resv vs. Old, Akt1 [8]: −1.315 fold
Fold Change Resv vs. Old, Camk2d [9]: 1.235 fold
Fold Change Resv vs. Old, Mapk1 [10]: −1.020 fold
Fold Change Resv vs. Old, Smad3 [11]: 1.285 fold
Fold Change Resv vs. Old, Dab2 [12]: 1.227 fold
Fold Change Resv vs. Old, Magi3 [13]: 1.244 fold
Fold Change Resv vs. Old, Ctnnb1(1) [14]: 2.787 fold
Fold Change Resv vs. Old, Ctnnb1(1) ([14]; listed as Resveratrol): 2.79 fold
Fold Change Resv vs. Old, Ctnnb1(2) ([14]; Ctnnb1 probe 2): 2.017 fold
